Measured values from US9656949B2, “Substituted carboxylic acid derivatives as aggrecanase inhibitors for the treatment of osteoarthritis” (MERCK PATENT GMBH, priority 2013, dated 2017).
Values after ≈ are worked out from the molar mass of the structure shown.

Tests used:
[1] = biological target: T1, human recombinant AdamTS-5 (Homo sapiens, UniProt Q9UNA0); assay: Biochemical activity testing of ADAMTS-5: aggrecan peptide cleavage assay (AlphaScreen); details: 4.5 nM human recombinant AdamTS-5, biotinylated 43mer aggrecan peptide, 180 min at 37° C.; read-out: IC50 [ADAM-NTS5]M
T1 construct: purchased R&D systems, Wiesbaden, Germany
T1 sequence (Q9UNA0 262-930): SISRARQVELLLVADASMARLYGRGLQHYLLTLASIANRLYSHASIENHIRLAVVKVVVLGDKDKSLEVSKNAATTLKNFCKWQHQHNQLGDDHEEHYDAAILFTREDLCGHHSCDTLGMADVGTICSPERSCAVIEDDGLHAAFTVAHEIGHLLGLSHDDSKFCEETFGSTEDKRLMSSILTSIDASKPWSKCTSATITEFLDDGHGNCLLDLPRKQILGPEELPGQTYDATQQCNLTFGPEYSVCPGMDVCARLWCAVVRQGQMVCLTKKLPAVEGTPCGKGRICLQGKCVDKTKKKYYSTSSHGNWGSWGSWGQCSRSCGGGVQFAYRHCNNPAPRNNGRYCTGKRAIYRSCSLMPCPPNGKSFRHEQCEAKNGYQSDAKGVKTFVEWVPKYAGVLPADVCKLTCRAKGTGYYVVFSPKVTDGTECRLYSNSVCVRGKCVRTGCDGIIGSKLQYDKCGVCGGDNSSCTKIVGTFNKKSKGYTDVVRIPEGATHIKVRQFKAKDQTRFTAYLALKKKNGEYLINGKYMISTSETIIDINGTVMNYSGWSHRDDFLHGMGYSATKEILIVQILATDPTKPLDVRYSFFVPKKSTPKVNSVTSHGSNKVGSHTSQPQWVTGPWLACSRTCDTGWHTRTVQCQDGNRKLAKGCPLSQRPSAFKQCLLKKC
Procedure: ADAMTS-5 is a metallo protease with glutamyl-endoprotease activity and cleaves aggrecan core protein at E373-A374 in the interglobular domain. To fully analyse the inhibitory potential of compounds on AdamTS-5 activity an Alphascreen® assay with a biotinylated 43mer aggrecan oligopeptide as substrate was performed. Cleavage by ADAMTS-5 caused production of a neoepitop N-terminus ARGS at the C-terminal fragment. The detection of this product is performed with streptavidin-AlphaScreen® donor beads binding to the biotin label and an anti-neoepitop (“ARGSV”) antibody that anchors anti-mouse IgG-coated AlphaLisa® acceptor beads to the other end of the generated fragment. Thereby, donor and acceptor beads get in proximity and a luminescence Alphascreen® signal is generated via the release of singlet oxygen. The cleavage activity was detectable directly by the increase in Alphascreen® signal.
The aggrecan peptide cleavage assay was performed as 384 well AlphaScreen® (Perkin Elmer) assay format in Perkin Elmer 384 AlphaPlate (proxiplate) shallow well microtiter plates and was used for high throughput screen in a total assay volume of 10 μl. 4.5 nM human recombinant AdamTS-5 (R&D systems, Wiesbaden, Germany) and 30 nM biotinylated peptide […]-K(bio) (custom-made, Biosynthan, Berlin, Germany) as substrate were incubated in a total volume of 6 μl (100 mM Tris/HCl, 150 mM NaCl, 10 mM CaCl2, 0.05% Brij®-35, 1% DMSO, 0.084% BSA, pH 7.5) in the absence or presence of the test compound (10 dilution concentrations) for 180 min at 37° C. The reaction was stopped and the first detection step performed by the addition of 2 μl detection solution 1 (48 mM EDTA, 8 nM aggrecan antibody N-term neoepitope ARG, mouse monoclonal BC3 antibody (MDBioproducts, Egg, Switzerland), 100 μg/ml Streptavidin Alphascreen® donor beads (Perkin Elmer, Rodgau, Germany) in 100 mM Tris/HCl, 150 mM NaCl, 0.05% Brij®-35, 0.1% BSA, pH 7.5). After an one-hour incubation at 37° C. 2 μl of the second detection solution (25 μg/ml anti-mouse AlphaLisa® acceptor beads (Perkin Elmer, Rodgau, Germany) in 100 mM Tris/HCl, 150 mM NaCl, 0.05% Brij®-35, 0.1% BSA, pH 7.5 were added. The plates were incubated for […] in the dark.
The AlphaScreen signal was measured with an Envision multimode reader (Perkin Elmer LAS Germany GmbH) with the Alphascreen protocol from Perkin Elmer (laser mode) emission wavelength 570 nm. The full value used was the inhibitor-free reaction. For the zero value a pharmacological reference was used. The inhibitory values (IC50) for the compounds were determined using either the program Symyx Assay Explorer® or Condosseo® from GeneData.

Solubility pH7.4 = format: physicochemical; details: pH 7.4, aqueous buffer

Row | Compound | IC50 [1] [nM] | solubility (Solubility pH7.4) [µg/mL]
1 | C[C@@H](C[C@H](NC(=O)c1ccc(-c2ccn(C)n2)cc1)C(=O)NC(C)(C)Cc1ccc(F)cc1)C(=O)O [Compound 9, (2S,4S)-4-[2-(4-Fluoro-phenyl)-1,1-dimethyl-ethylcarbamoyl]-2-methyl-4-[4-(1-methyl-1H-pyrazol-3-yl)-benzoylamino]-butyric acid] | 180 | 798 (≈ 1610 µM)
2 | CC(C)(Cc1ccc(F)cc1)NC(=O)[C@H](C[C@H](Cc1ccccc1)C(=O)O)NC(=O)c1ccc(-c2ccccc2)cc1 [Compound 6, (2S,4S)-2-Benzyl-4-[(biphenyl-4-carbonyl)-amino]-4-[2-(4-fluoro-phenyl)-1,1-dimethyl-ethylcarbamoyl]-butyric acid] | 150 | 60 (≈ 106 µM)
3 | C[C@@H](Cc1ccc(F)cc1)NC(=O)[C@H](C[C@H](C)C(=O)O)NC(=O)c1ccc(-c2ccccc2)cc1 (single isomer, unassigned) [Compound 3] | 62 | 159 (≈ 334 µM)
4 | C[C@@H](C[C@H](NC(=O)c1ccc(-c2ccccc2)cc1F)C(=O)NC(C)(C)Cc1ccc(F)cc1)C(=O)O [Compound 11, (2S,4S)-4-[(3-Fluoro-biphenyl-4-carbonyl)-amino]-4-[2-(4-fluoro-phenyl)-1,1-dimethyl-ethylcarbamoyl]-2-methyl-butyric acid] | 250 | 648 (≈ 1270 µM)
5 | C[C@@H](C[C@H](NC(=O)c1ccc(-c2ccccc2)cn1)C(=O)NC(C)(C)Cc1ccc(F)cc1)C(=O)O [Compound 13, 4-[2-(4-Fluoro-phenyl)-1,1-dimethyl-ethylcarbamoyl]-2-methyl-4-[(5-phenyl-pyridine-2-carbonyl)-amino]-butyric acid] | 330 | 855 (≈ 1740 µM)
6 | C[C@@H](C[C@H](NC(=O)c1ccc(-c2ccccc2)cc1)C(=O)NC(C)(C)Cc1cccnc1)C(=O)O [Compound 4, (2S,4S)-4-[(Biphenyl-4-carbonyl)-amino]-4-(1,1-dimethyl-2-pyridin-3-yl-ethylcarbamoyl)-2-methyl-butyric acid] | 66 | –
7 | C[C@@H](C[C@H](NC(=O)c1ccc(-c2cccnc2)cc1)C(=O)NC(C)(C)Cc1ccc(F)cc1)C(=O)O [Compound 16, (2S,4S)-4-[2-(4-Fluoro-phenyl)-1,1-dimethyl-ethylcarbamoyl]-2-methyl-4-(4-pyridin-3-yl-benzoylamino)-butyric acid] | 390 | 365 (≈ 743 µM)
8 | COc1cc(CNC(=O)[C@H](CC(C)C(=O)O)NC(=O)c2ccc(-c3ccccc3)cc2)cc(OC)c1OC (mixture of isomers) [Compound 1, 4-[(Biphenyl-4-carbonyl)-amino]-2-methyl-4-(3,4,5-trimethoxy-benzylcarbamoyl)-butyric acid] | 13 | 850
9 | C[C@@H](C[C@H](NC(=O)C1CCN(c2ccc(F)cc2)CC1)C(=O)NC(C)(C)Cc1ccc(F)cc1)C(=O)O [Compound 12, (2S,4S)-4-[2-(4-Fluoro-phenyl)-1,1-dimethyl-ethylcarbamoyl]-4-{[1-(4-fluoro-phenyl)-piperidine-4-carbonyl]-amino}-2-methyl-butyric acid] | 320 | 743 (≈ 1440 µM)
10 | C[C@@H](C[C@H](NC(=O)N1CCN(c2ccccc2)CC1)C(=O)NC(C)(C)Cc1ccc(F)cc1)C(=O)O [Compound 15, (2S,4S)-4-[2-(4-Fluoro-phenyl)-1,1-dimethyl-ethylcarbamoyl]-2-methyl-4-[(4-phenyl-piperazine-1-carbonyl)-amino]-butyric acid] | 360 | 924 (≈ 1850 µM)
11 | C[C@@H](C[C@H](NC(=O)c1cnc(-c2ccc(F)cc2)s1)C(=O)NC(C)(C)Cc1ccc(F)cc1)C(=O)O [Compound 20, (2S,4S)-4-[2-(4-Fluoro-phenyl)-1,1-dimethyl-ethylcarbamoyl]-4-{[2-(4-fluoro-phenyl)-thiazole-5-carbonyl]-amino}-2-methyl-butyric acid] | 1400 | 493 (≈ 956 µM)
12 | C[C@@H](C[C@H](NC(=O)c1ccc(-c2ccccc2)nc1)C(=O)NC(C)(C)Cc1ccc(F)cc1)C(=O)O [Compound 14, (2S,4S)-4-[2-(4-Fluoro-phenyl)-1,1-dimethyl-ethylcarbamoyl]-2-methyl-4-[(6-phenyl-pyridine-3-carbonyl)-amino]-butyric acid] | 350 | 775 (≈ 1580 µM)
13 | C[C@@H](C[C@H](NC(=O)c1ncc(-c2ccc(F)cc2)s1)C(=O)NC(C)(C)Cc1ccc(F)cc1)C(=O)O [Compound 2, (2S,4S)-4-[2-(4-Fluoro-phenyl)-1,1-dimethyl-ethylcarbamoyl]-4-{[5-(4-fluoro-phenyl)-thiazole-2-carbonyl]-amino}-2-methyl-butyric acid] | 47 | 912 (≈ 1770 µM)
14 | Cc1cnc(-c2ccc(C(=O)N[C@@H](C[C@H](C)C(=O)O)C(=O)NC(C)(C)Cc3ccc(F)cc3)cc2)s1 [Compound 19, (2S,4S)-4-[2-(4-Fluoro-phenyl)-1,1-dimethyl-ethylcarbamoyl]-2-methyl-4-[4-(5-methyl-thiazol-2-yl)-benzoylamino]-butyric acid] | 1200 | 637 (≈ 1250 µM)
15 | C[C@@H](C[C@H](NC(=O)c1ccc(-c2ccccn2)cc1)C(=O)NC(C)(C)Cc1ccc(F)cc1)C(=O)O [Compound 10, (2S,4S)-4-[2-(4-Fluoro-phenyl)-1,1-dimethyl-ethylcarbamoyl]-2-methyl-4-(4-pyridin-2-yl-benzoylamino)-butyric acid] | 190 | 883 (≈ 1800 µM)
16 | CC(Cc1ccc(F)cc1)NC(=O)[C@H](C[C@H](C)C(=O)O)NC(=O)c1ccc(-c2ccccc2)cc1 (single isomer, unassigned) [Compound 17] | 530 | 303 (≈ 636 µM)
17 | C[C@@H](C[C@H](NC(=O)N1CCC(c2ccccc2)CC1)C(=O)NC(C)(C)Cc1ccc(F)cc1)C(=O)O [Compound 18, (2S,4S)-4-[2-(4-Fluoro-phenyl)-1,1-dimethyl-ethylcarbamoyl]-2-methyl-4-[(4-phenyl-piperidine-1-carbonyl)-amino]-butyric acid] | 1200 | 805 (≈ 1620 µM)
